Assays:
Assay type in all cases: cell-based
HEK-293T cells = assay: Cell cytotoxicity assay HEK-293T (CellTiter-Glo, 72 hours); conditions: Table 3; 72 hours, top concentration of 50 μM; read-out: Cytotox K-293 EC50
Outline: (§1)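 HEK-293T or Jurkat E6-1 cells plated at 450 cells/well were treated the next day with a 10-point titration from 50 μM top (0.5% DMSO final). After 72 h at 37° C, viability was read by CellTiter-Glo luminescence.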

Jurkat clone E6-1 cells = assay: Cell cytotoxicity assay Jurkat (CellTiter-Glo, 72 hours); conditions: Table 3; 72 hours, top concentration of 50 μM; read-out: Cytotox Jurkat EC50
Outline: as §1

A549 cells = assay: Cell cytotoxicity assay A549 (CellTiter-Glo, 72 hours); conditions: Table 3; 72 hours, top concentration of 50 μM; read-out: Cytotox A549 EC50
Outline: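 A549 cells were plated overnight, then exposed for 72 h at 37 °C to a 10-point compound titration (top 50 μM, 0.5% DMSO final). Viability was read as CellTiter-Glo luminescence after 20 min at room temperature.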

In the case of `CC(CO)S(=O)(=O)c1ccc(OC(F)F)c(-c2nn(C)cc2NC(=O)c2cnn3cccnc23)c1` (single isomer, unassigned) [Example 24, N-[3-[2-(difluoromethoxy)-5-(2-hydroxy-1-methyl-ethyl)sulfonyl-phenyl]-1-methyl-pyrazol-4-yl]pyrazolo[1,5-a]pyrimidine-3-carboxamide], the EC50 (HEK-293T cells) is reported as 22 µM, the EC50 (Jurkat clone E6-1 cells) is reported as 37 µM and the EC50 (A549 cells) is reported as at least 50 µM.
